Where only a bound is given, the exact number is not on record here.

MLK-3, sequence (Q16584 whole entry): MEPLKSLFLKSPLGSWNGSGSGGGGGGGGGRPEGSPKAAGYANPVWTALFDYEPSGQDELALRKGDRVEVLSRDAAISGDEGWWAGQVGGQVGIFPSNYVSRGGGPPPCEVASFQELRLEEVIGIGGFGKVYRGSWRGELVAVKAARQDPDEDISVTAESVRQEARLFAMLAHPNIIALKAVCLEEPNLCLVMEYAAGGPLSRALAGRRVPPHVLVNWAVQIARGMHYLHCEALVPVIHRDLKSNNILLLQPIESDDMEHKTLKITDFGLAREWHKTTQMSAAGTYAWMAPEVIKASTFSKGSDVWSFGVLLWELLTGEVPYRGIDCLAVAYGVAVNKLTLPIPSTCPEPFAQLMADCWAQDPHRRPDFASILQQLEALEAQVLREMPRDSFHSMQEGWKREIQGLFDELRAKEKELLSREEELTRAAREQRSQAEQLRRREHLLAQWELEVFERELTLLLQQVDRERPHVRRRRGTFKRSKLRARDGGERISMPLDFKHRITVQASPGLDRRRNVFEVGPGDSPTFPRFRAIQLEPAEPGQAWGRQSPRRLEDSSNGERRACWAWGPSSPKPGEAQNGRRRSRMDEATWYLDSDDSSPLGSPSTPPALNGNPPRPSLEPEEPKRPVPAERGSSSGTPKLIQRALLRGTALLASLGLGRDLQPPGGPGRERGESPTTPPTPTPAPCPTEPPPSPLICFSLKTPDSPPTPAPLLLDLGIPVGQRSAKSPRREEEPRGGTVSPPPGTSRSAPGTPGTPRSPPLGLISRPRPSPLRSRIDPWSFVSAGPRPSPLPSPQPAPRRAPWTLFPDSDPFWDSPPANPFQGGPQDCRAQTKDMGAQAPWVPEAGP

For this assay, the target named is MLK-3 (Homo sapiens, UniProt Q16584). Briefly: Biochemical assay for the inhibition of kinase activity for MLK-3 (33P-ATP, HOTSPOT filter binding). Particulars: activated MLK-3 20 nM, ATP 50 μM, myelin basic protein 20 μM, 20 minutes room temperature. The gist of the method:
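Activated MLK-3 (20 nM) with myelin basic protein (20 μM) in 20 mM Hepes pH 7.5, MgCl2, EGTA, Brij35, BSA, Na3VO4, DTT, 1% DMSO. Started with 33P-ATP at 50 μM ATP, 20 min at room temperature; % activity by HOTSPOT filter binding.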
`COc1ccc(Nc2ccc3ncc(-c4cc5cccc(C)c5[nH]4)n3n2)cc1OC` [Compound 195, N-(3,4-dimethoxyphenyl)-3-(7-methyl-1H-indol-2-yl)imidazo[1,2-b]pyridazin-6-amine] yielded an IC50 of less than 5000 nM.

Regarding `Cc1cccc2cc(-c3cnc4ccc(N[C@H]5CC[C@H](O)CC5)nn34)[nH]c12` [Compound 196, trans-4-(3-(7-methyl-1H-indol-2-yl)imidazo[1,2-b]pyridazin-6-ylamino)cyclohexanol], the 50% inhibitory concentration (IC50) is 100 to 500 nM. For `COc1ccc(Nc2ccc3ncc(-c4cc5cc(OC)c(OC)cc5[nH]4)n3n2)cc1OC` [Compound 197, 3-(5,6-dimethoxy-1H-indol-2-yl)-N-(3,4-dimethoxyphenyl)imidazo[1,2-b]pyridazin-6-amine] the value was 100 to 500 nM; for `COc1ccc2[nH]c(-c3cnc4ccc(N[C@H]5CC[C@H](OC)CC5)nn34)cc2c1` [Compound 198, trans-3-(5-methoxy-1H-indol-2-yl)-N-(4-methoxycyclohexyl)imidazo[1,2-b]pyridazin-6-amine], less than 5000 nM; for `COc1cccc2cc(-c3cnc4ccc(N[C@H]5CC[C@H](OC)CC5)nn34)[nH]c12` [Compound 199, trans-3-(7-methoxy-1H-indol-2-yl)-N-(4-methoxycyclohexyl)imidazo[1,2-b]pyridazin-6-amine], less than 5000 nM. For `COc1cccc2cc(-c3cnc4ccc(N[C@H]5CC[C@H](OC)CC5)nn34)sc12` [Compound 200, trans-3-(7-methoxybenzo[b]thiophen-2-yl)-N-(4-methoxycyclohexyl)imidazo[1,2-b]pyridazin-6-amine] the value was 500 to 1000 nM; for `COc1cc2cc(-c3cnc4ccc(N[C@H]5CC[C@H](OC)CC5)nn34)sc2cc1OC` [Compound 201, trans-3-(5,6-dimethoxybenzo[b]thiophen-2-yl)-N-(4-methoxycyclohexyl)imidazo[1,2-b]pyridazin-6-amine], 100 to 500 nM; for `COc1ccc(Nc2ccc3ncc(-c4cc5cccc(C)c5s4)n3n2)cc1OC` [Compound 202, N-(3,4-dimethoxyphenyl)-3-(7-methylbenzo[b]thiophen-2-yl)imidazo[1,2-b]pyridazin-6-amine], less than 5000 nM. For `Cc1cccc2cc(-c3cnc4ccc(N[C@H]5CC[C@H](O)CC5)nn34)sc12` [Compound 203, trans-4-(3-(7-methylbenzo[b]thiophen-2-yl)imidazo[1,2-b]pyridazin-6-ylamino)cyclohexanol] the value was 100 to 500 nM; for `COc1ccc(Nc2ccc3ncc(-c4cc5cccnc5s4)n3n2)cc1OC` [Compound 204, N-(3,4-dimethoxyphenyl)-3-(thieno[2,3-b]pyridin-2-yl)imidazo[1,2-b]pyridazin-6-amine], 100 to 500 nM. In the case of `O[C@H]1CC[C@H](Nc2ccc3ncc(-c4cc5cccnc5s4)n3n2)CC1` [Compound 205, trans-4-(3-(thieno[2,3-b]pyridin-2-yl)imidazo[1,2-b]pyridazin-6-ylamino)cyclohexanol], the 50% inhibitory concentration (IC50) was in the range of 100 to 500 nM. For `COc1ccc(Nc2ccc3ncc(-c4cc5cnccc5s4)n3n2)cc1OC` [Compound 206, N-(3,4-dimethoxyphenyl)-3-(thieno[3,2-c]pyridin-2-yl)imidazo[1,2-b]pyridazin-6-amine] the value was less than 100 nM; for `O[C@H]1CC[C@H](Nc2ccc3ncc(-c4cc5cnccc5s4)n3n2)CC1` [Compound 207, trans-(3-(thieno[3,2-c]pyridin-2-yl)imidazo[1,2-b]pyridazin-6-ylamino)cyclohexanol], 100 to 500 nM. For `COc1ccc(Nc2ccc3ncc(-c4cc5ncccc5s4)n3n2)cc1OC` [Compound 208, N-(3,4-dimethoxyphenyl)-3-(thieno[3,2-b]pyridin-2-yl)imidazo[1,2-b]pyridazin-6-amine] the value was less than 5000 nM; for `O[C@H]1CC[C@H](Nc2ccc3ncc(-c4cc5ncccc5s4)n3n2)CC1` [Compound 209, trans-4-(3-(thieno[3,2-b]pyridin-2-yl)imidazo[1,2-b]pyridazin-6-ylamino)cyclohexanol], 500 to 1000 nM; for `COc1ccc(Nc2ccc3ncc(-c4cc5cncc(OC)c5s4)n3n2)cc1OC` [Compound 210, N-(3,4-dimethoxyphenyl)-3-(7-methoxythieno[3,2-c]pyridin-2-yl)imidazo[1,2-b]pyridazin-6-amine], less than 5000 nM. With `COc1ccc(Nc2ccc3ncc(-c4cc5cncc(O)c5s4)n3n2)cc1OC` [Compound 211, 2-(6-(3,4-dimethoxyphenylamino)imidazo[1,2-b]pyridazin-3-yl)thieno[3,2-c]pyridin-7-ol], the IC50 was less than 5000 nM.

With `COc1ccc(N(C)c2ccc3ncc(-c4cc5cncc(OC)c5s4)n3n2)cc1OC` [Compound 212, N-(3,4-dimethoxyphenyl)-3-(7-methoxythieno[3,2-c]pyridin-2-yl)-N-methylimidazo[1,2-b]pyridazin-6-amine], the IC50 is less than 5000 nM. As for `COc1cncc2cc(-c3cnc4ccc(N[C@H]5CC[C@H](O)CC5)nn34)sc12` [Compound 213, trans-4-(3-(7-methoxythieno[3,2-c]pyridin-2-yl)imidazo[1,2-b]pyridazin-6-ylamino)cyclohexanol], the IC50 was less than 100 nM. For `COc1ccc(Nc2ccc3ncc(-c4cc5cncc(C)c5s4)n3n2)cc1OC` [Compound 214, N-(3,4-dimethoxyphenyl)-3-(7-methylthieno[3,2-c]pyridin-2-yl)imidazo[1,2-b]pyridazin-6-amine] the value was 100 to 500 nM; for `Cc1cncc2cc(-c3cnc4ccc(N[C@H]5CC[C@H](O)CC5)nn34)sc12` [Compound 215, trans-4-(3-(7-methylthieno[3,2-c]pyridin-2-yl)imidazo[1,2-b]pyridazin-6-ylamino)cyclohexanol], less than 100 nM. For `CO[C@H]1CC[C@H](Nc2ccc3ncc(-c4cc5cncc(C)c5s4)n3n2)CC1` [Compound 216] the value was 100 to 500 nM.

The compound `COc1cncc2cc(-c3cnc4ccc(N[C@H]5CC[C@H](OC)CC5)nn34)sc12` [Compound 217] showed an IC50 of 100 to 500 nM. For `COc1ccc(Nc2ccc3ncc(-c4cc5ccncc5s4)n3n2)cc1OC` [Compound 218, N-(3,4-dimethoxyphenyl)-3-(thieno[2,3-c]pyridin-2-yl)imidazo[1,2-b]pyridazin-6-amine] the value was less than 100 nM; for `O[C@H]1CC[C@H](Nc2ccc3ncc(-c4cc5ccncc5s4)n3n2)CC1` [Compound 219, trans-4-(3-(thieno[2,3-c]pyridin-2-yl)imidazo[1,2-b]pyridazin-6-ylamino)cyclohexanol], less than 5000 nM; for `CO[C@H]1CC[C@H](N(C)c2ccc3ncc(-c4cc5cncc(C)c5s4)n3n2)CC1` [Compound 220, N-((1r,4r)-4-methoxycyclohexyl)-N-methyl-3-(7-methylthieno[3,2-c]pyridin-2-yl)imidazo[1,2-b]pyridazin-6-amine], 100 to 500 nM. For `Cc1cncc2cc(-c3cnc4ccc(N(C)[C@H]5CC[C@H](O)CC5)nn34)sc12` [Compound 221, trans-4-(N-methyl-N-(3-(7-methylthieno[3,2-c]pyridin-2-yl)imidazo[1,2-b]pyridazin-6-yl)amino)cyclohexanol] the value was 100 to 500 nM.

The IC50 is the concentration needed to halve the response being measured. Lower therefore signals higher potency.

(Values after patent publication US9370515B2, “Mixed lineage kinase inhibitors and method of treatments” (CALIFIA BIO, INC., priority 2013, dated 2016).)
